Laboratory results from patent publication US20110027230A1 (priority 2008, published 2011).

Legend:
[1] = system: C57BL/6J-APC Min/+ transgenic mice; assay: Histological grading of dysplasia of adenomatous formations; format: in vivo, mouse; conditions: estradiol-treated animals
Excerpt: Histological preparations of randomly chosen intestine sections of every animal from the different treatment groups were observed by a blinded pathologist, who graded the dysplasia of the adenomatous formations present as minor, mild or severe.

[2] = system: C57BL/6J-APC Min/+ transgenic mice; assay: Number and volume of intestinal polyps in APC Min/+ mice fed different diets for 10 weeks; format: in vivo, mouse; conditions: standard diet, s.c. pellet 1.5 mg 17β-estradiol, mean ± SD
Excerpt: The C57BL/6J APC Min/+ transgenic mouse is an excellent animal model for FAP, because the mutated APC gene is homologous to the human one. Even in the most common form of CRC, called sporadic, 85% of cases show the somatic mutation of the APC tumour suppressor gene. Therefore, the APC mutated transgenic animal model is acknowledged as the most significant for the study of the pathogenetic mechanisms that characterise the adenomatous polyposis in the colon, both in FAP and sporadic form, and it is considered a validated animal model for the set up of nutritional and pharmacological interventions aimed at controlling the development of adenomas and at preventing their progression to CRC (Levy D B et al. Inactivation of both APC alleles in human and mouse tumors. Cancer Res 1994, 54: 5953-5958; Paulsen J E et al. Qualitative and quantitative relationship between dysplastic aberrant crypt foci and tumorigenesis in the Min/+ mouse colon). For this reason, in setting up the oral formulations object of the present invention, and in the evaluation of their safety and efficacy, the Inventors made use of the above mentioned C57BL/6J APC Min/+ transgenic mouse model. Hereafter are described the data showing the effect in C57BL/6J-APC Min/+ transgenic mice, orally fed silymarin added diets, containing soluble and insoluble fibres in different proportions with the purpose of highlighting the differentiative properties of the insoluble and indigestible fibre. […]
After 10 weeks of treatment the animals received an intraperitoneal injection of 0.75 mg of Bromodeoxyuridine (BrdU), equivalent to 30 mg/kg, to verify the migration of cells of the intestinal mucosa along the villus axis (from crypt at the bottom to the luminal tip). […] Two blinded observers measured the number and size of polyps. […]

[3] = system: cells of the intestinal mucosa; assay: BrdU cell migration along the villus axis (highest labeled cell); format: in vivo, mouse; conditions: estrogen s.c., standard diet, 24 h after BrdU
Experimental: After 10 weeks of treatment the animals received an intraperitoneal injection of 0.75 mg of Bromodeoxyuridine (BrdU), equivalent to 30 mg/kg, to verify the migration of cells of the intestinal mucosa along the villus axis (from crypt at the bottom to the luminal tip). This parameter allows to verify the normal esfoliative physiology of the intestinal mucosa, through which the mucosa keeps itself composed of healthy and vital cells. To this end, the animals were sacrificed 24, 48 and 72 hours after injection. Small intestine and colon were taken from every sacrificed animal. The small intestine was divided into three sections: proximal, medial and distal. The proximal tract was further divided in two portions that were subsequently scraped. One of the two was dipped in RNAlater® and stored at −20° C. and the other stored in liquid nitrogen. The two samples were used for Real Time PCR and Western Blotting, respectively. The medial and distal tracts, together with the colon, were used for the histological analysis. After a 3-hours pre-fixative treatment with formol, the intestinal tracts under examination were observed under an STM1 stereomicroscope, 3× magnification. Two blinded observers measured the number and size of polyps.

[4] = system: C57BL/6J-APC Min/+ transgenic mice; conditions: female transgenic mice, administration after ovariectomy, Weyant et al.; cited from earlier work
[5] = Body weight, mortality, dietary intake and tolerability during 10 weeks of diet; conditions: standard diet, s.c. pellet 1.5 mg 17β-estradiol, mean ± SD
Experimental: Silymarin up to 200 mg/kg was added to each diet. The diets were orally administered for 10 weeks to 114 male C57BL/6J-APC Min/+ transgenic mice 5-6 weeks old. These mice have a mutation of the APC gene, and are prone to develop colon adenomatous polyposis. […] The statistical analysis has been performed by means of the One-way Analysis of Variance and the t-Student tests, considering statistically significant a p<0.05.
Every oral treatment lasted 10 weeks. The treatment scheme was designed to highlight the effects of the type of fibre, associated or not with increasing amounts of silymarin.

Compound: C[C@]12CC[C@@H]3c4ccc(O)cc4CC[C@H]3[C@@H]1CC[C@@H]2O [estrogen, 17β-estradiol]
- Animals showing polyps with dysplasia classifiable as severe [1]: 70%
- Number of intestinal polyps [2]: 32.33 ± 12.06
- Polyps volume ([2]; listed as Estrogen): 141.78 ± 79.1 mm^3
- Polyps volume ([2]; listed as estradiol): ineffective
- 24 hours migration of colonocytes from the crypt to the apex of the villus [3]: 47.3 ± 10.5 %
- Intestinal adenomas after ovariectomy [4]: caused a reduction in intestinal adenomas
- Body weight at time of sacrifice [5]: 24.9 ± 2.8 g
